The source of these data is ChEMBL document CHEMBL5107961, “Design, synthesis, and biological evaluation of C6-difluoromethylenated epoxymorphinan Mu opioid receptor antagonists” (RSC Med Chem, 2022).

For this assay, the target named is Mu-type opioid receptor (Homo sapiens, UniProt P35372). Type of assay: functional, cell-based, CHO-K1.
Mu-type opioid receptor, sequence (P35372 whole entry): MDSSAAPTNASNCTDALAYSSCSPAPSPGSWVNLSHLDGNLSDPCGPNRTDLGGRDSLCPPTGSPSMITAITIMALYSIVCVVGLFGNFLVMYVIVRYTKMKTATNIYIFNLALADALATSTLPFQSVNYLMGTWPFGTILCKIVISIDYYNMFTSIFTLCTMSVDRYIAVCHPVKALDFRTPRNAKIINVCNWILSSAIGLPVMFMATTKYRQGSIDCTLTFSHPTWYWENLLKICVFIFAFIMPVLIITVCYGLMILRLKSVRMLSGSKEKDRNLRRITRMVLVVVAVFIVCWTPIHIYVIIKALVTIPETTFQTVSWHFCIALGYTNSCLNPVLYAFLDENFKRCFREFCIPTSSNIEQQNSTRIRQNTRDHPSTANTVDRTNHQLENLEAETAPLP

Description: Antagonist activity at human MOR expressed in CHO-K1 cells assessed as reduction in fentanyl induced cAMP production incubated for 30 mins by Lance ultra cAMP assay

As for `Oc1ccc2c3c1O[C@H]1C(=C(F)F)CC[C@@]4(O)[C@@H](C2)N(CC2CC2)CC[C@]314`, inhibition was half-maximal at 5.1 nM (IC50).
